Assay results from publication PMC5407577, “Functional and genetic evidence that nucleoside transport is highly conserved in Leishmania species: Implications for pyrimidine-based chemotherapy” (International Journal for Parasitology: Drugs and Drug …, 2017).
Read-outs that look alike come from different tables or passages of the source.

Assays:
[1] = molecular target: LmexNT1; experiment: [3H]-adenosine uptake by L. mexicana promastigotes; type: cell-based, Leishmania mexicana
From the text: Using the standard uptake technique as described for T. brucei and Leishmania species ([Wallace et al., 2002], [Al-Salabi and De Koning, 2005], [Gudin et al., 2006]), the dose- or time-dependent uptake of radiolabeled permeants was investigated. The following radiolabels and specific activities were used: [^3H]-thymidine (Perkin Elmer; 56.6 Ci/mmol); [^3H]-adenosine (American Radiolabeled Chemicals UK; 40 Ci/mmol); [^3H]-uridine (American Radiolabeled Chemicals UK; 30 Ci/mmol); [^3H]-uracil (Perkin Elmer; 24.8 Ci/mmol); [^3H]-inosine (American Radiolabeled Chemicals UK; 20 Ci/mmol); [^3H]-5-fluorouracil (Moravek; 20 Ci/mmol).
(§1) Briefly, cells in the mid-to-late logarithmic stage of growth were harvested by centrifugation for 10 min at 1500×g. The cells were washed twice with transport assay buffer (AB: 33 mM HEPES, 98 mM NaCl, 4.6 mM KCl, 0.55 mM CaCl2, 0.07 mM MgSO4, 5.8 mM NaH2PO4, 0.3 mM MgCl2, 23 mM NaHCO3, 14 mM glucose, pH 7.3), resuspended at a density of 10^8 cells ml^−1 in AB, and left for 20–30 min at room temperature to recover from centrifugation stress. One hundred microliters of cell suspension was incubated at ambient temperature for a predetermined time with 100 μl radiolabeled test compound, in the presence or absence of unlabeled substrate or other competitive inhibitors. The incubation was terminated by the addition of ice-cold stop solution (AB containing saturating levels, usually 10 mM, of unlabeled permeant) and centrifugation through oil for 1 min at 13,000 × g. […] Radioactivity was determined by liquid scintillation counting in a Beckman LS6000 TA scintillation counter. Saturation data, inhibition data, and time courses were plotted to equations for linear or non-linear regression (hyperbolic or sigmoid curves), as appropriate. All experiments were performed in triplicate and on at least three independent occasions.
We next investigated the transport of [^3H]-adenosine in L. mexicana promastigotes, which according to the efficient inhibition of [^3H]-thymidine by adenosine, should be taken up with high affinity.

[2] = molecular target: LmajUUT1; experiment: [3H]-uridine uptake by L. major promastigotes, high-affinity uracil-sensitive component; type: cell-based, Leishmania major; conditions: inhibition of 0.25 μM [3H]-uridine uptake
Experimental: (§2) Using the standard uptake technique as described for T. brucei and Leishmania species ([Wallace et al., 2002], [Al-Salabi and De Koning, 2005], [Gudin et al., 2006]), the dose- or time-dependent uptake of radiolabeled permeants was investigated.
as §1

[3] = tested on: L. major promastigotes; experiment: total [3H]-uridine uptake by L. major promastigotes; type: cell-based, Leishmania major; conditions: Leishmania major
Experimental: as §2, §1

[4] = molecular target: LmajNT1; experiment: [3H]-thymidine uptake by L. major promastigotes; type: cell-based, Leishmania major; conditions: inhibition of 0.25 μM [3H]-thymidine uptake (total LmajNT1.1 + LmajNT1.2), 5 min
Experimental: as §2, §1
Subsequent experiments were performed with a 5 min incubation time.

[5] = molecular target: LmexNT1; type: cell-based, Leishmania mexicana; conditions: inhibition of 0.25 μM [3H]-uridine uptake in the presence of 1 mM uracil
Experimental: as §2, §1

[6] = molecular target: LmexUU1; type: cell-based, Leishmania mexicana; conditions: inhibition of [3H]-uracil uptake, 4 min
Experimental: as §2, §1

[7] = molecular target: LmajNT1; experiment: [3H]-uridine uptake by L. major promastigotes, low-affinity component; type: cell-based, Leishmania major; conditions: inhibition of 0.25 μM [3H]-uridine uptake
Experimental: as §2, §1

[8] = tested on: LmexNT2; experiment: [3H]-inosine transport by T. brucei B48 cells expressing LmexNT2; type: cell-based, Leishmania mexicana
Experimental: Plasmid construction and transfection was performed according to [Munday et al. (2013)]. The nucleoside transporter genes were isolated from L. mexicana and L. major. […] The primers used in this study (Table S2) were designed to flank the gene of interest, one complementary to the sequence upstream of the 5′ end and the other complementary to the sequence downstream of the 3′ end. All of the nucleoside transporters genes were PCR-amplified from genomic DNA of each strain using the high-fidelity proof-reading polymerase Phusion (New England Biolabs) and cloned into the pGEMTeasy (Promega) vector prior to Sanger sequencing (Source BioScience, Glasgow, UK). […] After confirming the identity of each gene, the nucleoside transporter genes (LmajNT1A, LmajNT1B, LmajNT2, LmexNT1A, LmexNT1B, and LmexNT2) were ligated into the expression vector pHD1336 ([Biebinger et al., 1997]) and then were linearized with NotI digestion. All genes were verified by Sanger sequencing, prior to transfection into T. b. brucei clone B48. B48 parasites (1 × 10^7 cells) were washed into Human T Cell buffer for transfection using the desired cassette with an Amaxa Nucleofector using program X-001. […]
(§3) Briefly, cells in the mid-to-late logarithmic stage of growth were harvested by centrifugation for 10 min at 1500×g. […] Radioactivity was determined by liquid scintillation counting in a Beckman LS6000 TA scintillation counter. […]

[9] = tested on: T. b. brucei strain B48; experiment: microbe, parasite or virus in culture; type: cell-based; conditions: Trypanosoma brucei, read-out: inhibition of 0.5 μM [3H]-uridine uptake, 250 μM inhibitor
Experimental: as §2
as §1, with “All experiments were performed in triplicate and on at least three independent occasions.” left out

[10] = molecular target: LmexNT1; type: cell-based, Leishmania mexicana; conditions: inhibition of 1 μM [3H]-thymidine uptake, 20 s
Experimental: as §2, §1
L. donovani is known to express one pyrimidine nucleoside transporter, LdNT1, which also transports adenosine ([Vasudevan et al., 1998], [De Koning et al., 2005]). In order to investigate whether this model held true for L. mexicana, the uptake of [^3H]-thymidine was studied. […] Care was taken throughout this study that whenever inhibition constants (Ki) or Michaelis-Menten constants (Km) were determined the conditions used had been verified to be well within the linear range of uptake.

[11] = tested on: T. b. brucei strain B48; experiment: [3H]-inosine uptake in non-transfected T. brucei B48; type: cell-based, Trypanosoma brucei brucei
Experimental: as §2, §1

[12] = tested on: LmajNT2; experiment: [3H]-inosine transport by T. brucei B48 cells expressing LmajNT2; type: cell-based, Leishmania major
Experimental: Plasmid construction and transfection was performed according to [Munday et al. (2013)]. The nucleoside transporter genes were isolated from L. mexicana and L. major. […] The primers used in this study (Table S2) were designed to flank the gene of interest, one complementary to the sequence upstream of the 5′ end and the other complementary to the sequence downstream of the 3′ end. All of the nucleoside transporters genes were PCR-amplified from genomic DNA of each strain using the high-fidelity proof-reading polymerase Phusion (New England Biolabs) and cloned into the pGEMTeasy (Promega) vector prior to Sanger sequencing (Source BioScience, Glasgow, UK). […] After confirming the identity of each gene, the nucleoside transporter genes (LmajNT1A, LmajNT1B, LmajNT2, LmexNT1A, LmexNT1B, and LmexNT2) were ligated into the expression vector pHD1336 ([Biebinger et al., 1997]) and then were linearized with NotI digestion. All genes were verified by Sanger sequencing, prior to transfection into T. b. brucei clone B48. B48 parasites (1 × 10^7 cells) were washed into Human T Cell buffer for transfection using the desired cassette with an Amaxa Nucleofector using program X-001. Cells were transferred into pre-warmed HMI-9 medium and allowed to recover for 8–16 h at 37 °C and 5% CO2. Following recovery, transfectants were grown and cloned in selective medium containing 5 μg ml^−1 blasticidin S using limiting dilution.
as §2, §3

[13] = inhibition of 0.05 μM [3H]-adenosine uptake, read-out: Ki
[14] = 50 nM [3H]-inosine + 250 μM adenosine

Structure (SMILES)	Ki [1, 13]	Ki [2]	inhibition at 0.25 µM ([3]; 3 h, read-out: partial (maximal) inhibition of 0.25 μM [3H]-uridine transport)	Ki [4]	Ki [5]	Ki [6]	Ki [7]	Ki ([1]; inhibition of [3H]-adenosine uptake, read-out: affinity for inhibition of adenosine transport (Ki))	rate of transport in the presence of adenosine [8, 14]	inhibition of 50 nM [3H]-inosine transport ([8]; 1 mM inosine)	inhibition at 250 µM [9]	inhibition at 100 µM ([3]; 20 min, read-out: inhibition of 0.25 μM uridine transport in time course over 20 min, 100 μM inhibitor, n = 2)	inhibition at 100 µM ([3]; at 100 μM inhibitor, read-out: inhibition of 0.25 μM [3H]-uridine transport)	Ki [10]	rate of uptake ([11]; 50 nM [3H]-inosine)	inhibition of 50 nM [3H]-inosine transport ([11]; 250 μM adenosine or 1 mM unlabeled inosine (Fig. 7B))	uptake rate in the presence of adenosine [12, 14]	inhibition of 50 nM [3H]-inosine transport ([12]; 1 mM inosine)
Nc1ncnc2[nH]cnc12 [adenine]	> 1000 µM	5.14 ± 2.25 µM	62.7 ± 1.7%	> 1000 µM	> 1000 µM	288 ± 67 µM	> 1000 µM	–	–	–	–	–	–	–	–	–	–	–
O=c1[nH]cnc2c1ncn2[C@@H]1O[C@H](CO)[C@@H](O)[C@H]1O [inosine]	1630 ± 134 µM	0.5 ± 0.16 µM	–	1990 ± 3050 µM	1010 ± 190 µM	–	> 1000 µM	1600 ± 100 µM	0.0023 ± 0.0003 pmol(10^7 cells)^−1s^−1	99.9%	24.3%	83.5%	70.8 ± 4.5%	640 ± 34 µM	0.0049 ± 0.0002 pmol(10^7 cells)s^−1	fully inhibited	0.0023 ± 0.0001 pmol(10^7 cells)^−1s^−1	99.8%
